Common to all, as to experiment: biochemical
What all share (design): species or system human cell line lysate

For experiment [1], the target named is Phosphatidylinositol 4-kinase alpha ; PI4KA ; P42356 (Homo sapiens, UniProt P42356).
The target of experiment [2] is Ribosomal protein S6 kinase alpha-6 ; RPS6KA6 ; Q9UK32 (Homo sapiens, UniProt Q9UK32).
Experiment [3] concerns the target Rho-associated protein kinase 1 ; ROCK1 ; Q13464 (Homo sapiens, UniProt Q13464).
Experiment [4] deals with Mitogen-activated protein kinase kinase kinase kinase 3 ; MAP4K3 ; Q8IVH8 (Homo sapiens, UniProt Q8IVH8).
Experiment [5] deals with Isoform 2 of Tyrosine-protein kinase Lyn ; LYN ; P07948-2 (Homo sapiens, UniProt P07948).
In experiment [6] the target is Mitogen-activated protein kinase kinase kinase 3 ; MAP3K3 ; Q99759 (Homo sapiens, UniProt Q99759).
In experiment [7] the target is Isoform 6 of Tyrosine-protein kinase ABL2 ; ABL2 ; P42684-6 (Homo sapiens, UniProt P42684).
Sequence of Isoform 6 of Tyrosine-protein kinase ABL2 ; ABL2 ; P42684-6 (P42684 whole entry, canonical isoform): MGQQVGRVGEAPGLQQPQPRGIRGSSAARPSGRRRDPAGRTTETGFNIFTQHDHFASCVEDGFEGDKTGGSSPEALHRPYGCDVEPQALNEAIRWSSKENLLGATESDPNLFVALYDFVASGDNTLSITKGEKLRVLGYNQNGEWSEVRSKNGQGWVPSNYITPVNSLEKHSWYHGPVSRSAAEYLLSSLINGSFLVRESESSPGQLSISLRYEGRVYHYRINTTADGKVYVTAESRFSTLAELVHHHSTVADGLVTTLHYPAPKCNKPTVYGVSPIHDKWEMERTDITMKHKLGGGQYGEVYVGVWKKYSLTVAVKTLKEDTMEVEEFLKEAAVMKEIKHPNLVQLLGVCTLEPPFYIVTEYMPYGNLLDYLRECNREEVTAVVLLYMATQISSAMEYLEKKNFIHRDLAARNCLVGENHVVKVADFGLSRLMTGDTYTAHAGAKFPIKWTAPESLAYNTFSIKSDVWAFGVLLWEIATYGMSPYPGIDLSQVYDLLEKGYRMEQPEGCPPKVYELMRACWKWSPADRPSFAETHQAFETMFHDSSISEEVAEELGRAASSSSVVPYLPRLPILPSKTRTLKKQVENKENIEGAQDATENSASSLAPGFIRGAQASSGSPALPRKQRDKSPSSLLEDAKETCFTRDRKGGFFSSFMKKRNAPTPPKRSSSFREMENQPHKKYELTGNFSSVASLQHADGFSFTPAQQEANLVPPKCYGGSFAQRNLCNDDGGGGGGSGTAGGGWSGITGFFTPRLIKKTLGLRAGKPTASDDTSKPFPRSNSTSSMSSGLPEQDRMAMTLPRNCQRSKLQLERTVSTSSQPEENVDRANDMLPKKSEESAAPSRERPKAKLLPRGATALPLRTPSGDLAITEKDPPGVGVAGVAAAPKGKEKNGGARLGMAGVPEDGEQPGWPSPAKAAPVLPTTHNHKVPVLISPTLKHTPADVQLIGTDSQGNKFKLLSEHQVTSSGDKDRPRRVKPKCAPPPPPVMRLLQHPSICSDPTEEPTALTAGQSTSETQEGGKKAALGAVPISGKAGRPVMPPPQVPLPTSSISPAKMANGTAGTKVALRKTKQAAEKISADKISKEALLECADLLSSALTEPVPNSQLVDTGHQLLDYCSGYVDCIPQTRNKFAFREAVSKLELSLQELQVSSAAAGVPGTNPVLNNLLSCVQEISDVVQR
Experiment [8] addresses STE20-like serine/threonine-protein kinase ; SLK ; Q9H2G2 (Homo sapiens, UniProt Q9H2G2).
Experiment [9] deals with Atypical kinase COQ8A, mitochondrial ; COQ8A ; Q8NI60 (Homo sapiens, UniProt Q8NI60).
Experiment [10] concerns the target Isoform GRK6B of G protein-coupled receptor kinase 6 ; GRK6 ; P43250-2 (Homo sapiens, UniProt P43250).
In experiment [11] the target is Calcium/calmodulin-dependent protein kinase type II subunit beta ; CAMK2B ; Q13554 (Homo sapiens, UniProt Q13554).
Experiment [12] has as its target Serine/threonine-protein kinase D2 ; PRKD2 ; Q9BZL6 (Homo sapiens, UniProt Q9BZL6).
Experiment [13] addresses Serine/threonine-protein kinase N3 ; PKN3 ; Q6P5Z2 (Homo sapiens, UniProt Q6P5Z2).
Experiment [14] has as its target T1, Dual specificity mitogen-activated protein kinase kinase 3 ; MAP2K3 ; P46734 (Homo sapiens, UniProt P46734).
T1 sequence (P46734 1-347): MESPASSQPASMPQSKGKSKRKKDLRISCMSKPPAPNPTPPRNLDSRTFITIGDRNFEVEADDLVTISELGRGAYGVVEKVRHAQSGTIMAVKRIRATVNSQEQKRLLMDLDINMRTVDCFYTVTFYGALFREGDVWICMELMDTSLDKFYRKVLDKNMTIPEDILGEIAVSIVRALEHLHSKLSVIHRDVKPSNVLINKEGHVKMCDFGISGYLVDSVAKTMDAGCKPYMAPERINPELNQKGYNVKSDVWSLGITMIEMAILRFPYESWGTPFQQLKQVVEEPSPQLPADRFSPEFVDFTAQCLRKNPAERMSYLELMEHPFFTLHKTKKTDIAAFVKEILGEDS

Experiment [15] has as its target Isoform 4 of Casein kinase I isoform gamma-3 ; CSNK1G3 ; Q9Y6M4-4 (Homo sapiens, UniProt Q9Y6M4).
Experiment [16] deals with Isoform 3 of Serine/threonine-protein kinase MARK1 ; MARK1 ; Q9P0L2-3 (Homo sapiens, UniProt Q9P0L2).
The target of experiment [17] is Nucleoside diphosphate kinase, mitochondrial ; NME4 ; O00746 (Homo sapiens, UniProt O00746).
Experiment [18] deals with Serine/threonine-protein kinase LATS1 ; LATS1 ; O95835 (Homo sapiens, UniProt O95835).
The target in experiment [19] is Mitogen-activated protein kinase kinase kinase 9 ; MAP3K9 ; P80192 (Homo sapiens, UniProt P80192).
Experiment [20] concerns the target Mitogen-activated protein kinase 1 ; MAPK1 ; P28482 (Homo sapiens, UniProt P28482).
Experiment [21] deals with BMP-2-inducible protein kinase ; BMP2K ; Q9NSY1 (Homo sapiens, UniProt Q9NSY1).
Sequence of BMP-2-inducible protein kinase ; BMP2K ; Q9NSY1 (Q9NSY1 whole entry): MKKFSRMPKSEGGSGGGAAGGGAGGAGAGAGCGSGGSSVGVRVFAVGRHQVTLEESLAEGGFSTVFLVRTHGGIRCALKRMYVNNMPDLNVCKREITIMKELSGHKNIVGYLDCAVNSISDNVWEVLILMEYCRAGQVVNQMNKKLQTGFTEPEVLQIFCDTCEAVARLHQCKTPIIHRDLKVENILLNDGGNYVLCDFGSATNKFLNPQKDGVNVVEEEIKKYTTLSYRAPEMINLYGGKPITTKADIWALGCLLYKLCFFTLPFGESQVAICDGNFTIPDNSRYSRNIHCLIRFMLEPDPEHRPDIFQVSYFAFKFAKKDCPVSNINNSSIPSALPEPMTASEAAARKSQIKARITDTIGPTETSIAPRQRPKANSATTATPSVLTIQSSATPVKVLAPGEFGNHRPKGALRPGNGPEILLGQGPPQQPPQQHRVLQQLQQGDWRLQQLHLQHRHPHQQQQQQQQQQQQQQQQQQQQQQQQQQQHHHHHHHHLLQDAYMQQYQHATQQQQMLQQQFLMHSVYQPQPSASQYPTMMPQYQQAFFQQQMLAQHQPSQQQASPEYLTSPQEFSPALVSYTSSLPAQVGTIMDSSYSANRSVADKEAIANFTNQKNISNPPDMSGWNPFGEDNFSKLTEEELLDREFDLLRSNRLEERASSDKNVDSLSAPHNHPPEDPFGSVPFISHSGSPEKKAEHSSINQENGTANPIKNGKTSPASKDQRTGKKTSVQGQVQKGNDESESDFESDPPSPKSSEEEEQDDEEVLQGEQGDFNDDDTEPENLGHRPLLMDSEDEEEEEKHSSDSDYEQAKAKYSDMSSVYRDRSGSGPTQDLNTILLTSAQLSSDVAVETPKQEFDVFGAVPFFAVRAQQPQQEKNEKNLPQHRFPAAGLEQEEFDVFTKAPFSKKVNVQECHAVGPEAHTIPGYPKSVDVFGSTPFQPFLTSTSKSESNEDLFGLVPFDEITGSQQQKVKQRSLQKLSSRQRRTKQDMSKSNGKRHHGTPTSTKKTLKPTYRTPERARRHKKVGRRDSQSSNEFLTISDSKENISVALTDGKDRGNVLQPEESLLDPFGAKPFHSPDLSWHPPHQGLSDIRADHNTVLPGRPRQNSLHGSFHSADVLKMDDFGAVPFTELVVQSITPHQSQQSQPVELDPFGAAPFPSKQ
Where [22] appears, read: read-out: BAY-1251152 (10 µM) / %Intensity relative to DMSO.
Setting [23] is: read-out: BAY-1143572 (10 µM) / %Intensity relative to DMSO.

Like-named read-outs stand apart in the source and are kept apart here.

Sequence of Rho-associated protein kinase 1 ; ROCK1 ; Q13464 (Q13464 whole entry): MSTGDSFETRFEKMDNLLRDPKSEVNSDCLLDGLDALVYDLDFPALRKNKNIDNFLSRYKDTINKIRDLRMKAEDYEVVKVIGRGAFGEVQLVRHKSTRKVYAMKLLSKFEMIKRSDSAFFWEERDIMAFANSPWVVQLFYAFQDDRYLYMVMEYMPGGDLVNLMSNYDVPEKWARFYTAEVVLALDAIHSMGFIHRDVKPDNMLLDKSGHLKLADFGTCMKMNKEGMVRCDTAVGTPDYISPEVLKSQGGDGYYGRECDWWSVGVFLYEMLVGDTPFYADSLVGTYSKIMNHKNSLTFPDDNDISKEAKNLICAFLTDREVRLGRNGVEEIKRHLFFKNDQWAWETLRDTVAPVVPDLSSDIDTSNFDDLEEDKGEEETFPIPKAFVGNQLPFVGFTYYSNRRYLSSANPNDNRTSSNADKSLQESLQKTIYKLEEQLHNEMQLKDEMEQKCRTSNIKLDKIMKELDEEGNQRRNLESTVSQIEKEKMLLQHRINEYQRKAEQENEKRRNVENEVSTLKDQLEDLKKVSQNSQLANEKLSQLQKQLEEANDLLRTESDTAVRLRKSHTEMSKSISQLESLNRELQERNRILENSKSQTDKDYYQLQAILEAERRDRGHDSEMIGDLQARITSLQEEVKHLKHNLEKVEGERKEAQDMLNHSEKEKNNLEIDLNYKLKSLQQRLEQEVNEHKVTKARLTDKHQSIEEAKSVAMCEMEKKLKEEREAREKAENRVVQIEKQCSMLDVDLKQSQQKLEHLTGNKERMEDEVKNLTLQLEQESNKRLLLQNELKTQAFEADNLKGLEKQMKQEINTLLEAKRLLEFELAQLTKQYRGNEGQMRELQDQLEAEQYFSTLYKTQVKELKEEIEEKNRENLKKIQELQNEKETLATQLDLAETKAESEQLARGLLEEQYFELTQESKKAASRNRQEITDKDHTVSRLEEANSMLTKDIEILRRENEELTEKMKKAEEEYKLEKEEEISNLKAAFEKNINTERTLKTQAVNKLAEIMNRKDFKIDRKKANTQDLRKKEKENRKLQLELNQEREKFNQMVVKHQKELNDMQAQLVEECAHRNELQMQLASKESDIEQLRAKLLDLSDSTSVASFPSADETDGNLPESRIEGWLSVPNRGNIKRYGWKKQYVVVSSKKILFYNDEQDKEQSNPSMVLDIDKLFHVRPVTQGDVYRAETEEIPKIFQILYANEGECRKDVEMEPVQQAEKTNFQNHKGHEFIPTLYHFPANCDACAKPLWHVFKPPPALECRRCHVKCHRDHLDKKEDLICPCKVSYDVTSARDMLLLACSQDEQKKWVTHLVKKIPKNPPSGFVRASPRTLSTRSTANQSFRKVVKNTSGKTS
Sequence of Ribosomal protein S6 kinase alpha-6 ; RPS6KA6 ; Q9UK32 (Q9UK32 whole entry): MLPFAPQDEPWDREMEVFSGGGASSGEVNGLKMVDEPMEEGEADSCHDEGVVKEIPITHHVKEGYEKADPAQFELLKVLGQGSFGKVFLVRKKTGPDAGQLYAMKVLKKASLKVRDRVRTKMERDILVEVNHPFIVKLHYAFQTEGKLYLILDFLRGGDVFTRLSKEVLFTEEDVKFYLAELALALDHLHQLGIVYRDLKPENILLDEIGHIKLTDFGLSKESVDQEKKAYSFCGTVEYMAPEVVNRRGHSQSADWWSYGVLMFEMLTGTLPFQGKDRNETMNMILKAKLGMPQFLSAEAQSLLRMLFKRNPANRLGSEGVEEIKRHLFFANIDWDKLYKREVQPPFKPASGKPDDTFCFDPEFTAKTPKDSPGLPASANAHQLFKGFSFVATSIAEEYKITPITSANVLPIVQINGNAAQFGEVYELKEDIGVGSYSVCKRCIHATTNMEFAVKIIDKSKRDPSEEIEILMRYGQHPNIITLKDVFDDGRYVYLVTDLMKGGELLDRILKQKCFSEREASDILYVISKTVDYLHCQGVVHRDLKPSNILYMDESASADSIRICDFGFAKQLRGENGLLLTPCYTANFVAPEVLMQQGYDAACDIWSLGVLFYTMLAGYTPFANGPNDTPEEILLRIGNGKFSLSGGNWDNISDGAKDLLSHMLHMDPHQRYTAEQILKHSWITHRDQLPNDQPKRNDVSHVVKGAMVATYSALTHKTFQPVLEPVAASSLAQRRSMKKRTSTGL
Sequence of Isoform GRK6B of G protein-coupled receptor kinase 6 ; GRK6 ; P43250-2 (P43250 whole entry, canonical isoform): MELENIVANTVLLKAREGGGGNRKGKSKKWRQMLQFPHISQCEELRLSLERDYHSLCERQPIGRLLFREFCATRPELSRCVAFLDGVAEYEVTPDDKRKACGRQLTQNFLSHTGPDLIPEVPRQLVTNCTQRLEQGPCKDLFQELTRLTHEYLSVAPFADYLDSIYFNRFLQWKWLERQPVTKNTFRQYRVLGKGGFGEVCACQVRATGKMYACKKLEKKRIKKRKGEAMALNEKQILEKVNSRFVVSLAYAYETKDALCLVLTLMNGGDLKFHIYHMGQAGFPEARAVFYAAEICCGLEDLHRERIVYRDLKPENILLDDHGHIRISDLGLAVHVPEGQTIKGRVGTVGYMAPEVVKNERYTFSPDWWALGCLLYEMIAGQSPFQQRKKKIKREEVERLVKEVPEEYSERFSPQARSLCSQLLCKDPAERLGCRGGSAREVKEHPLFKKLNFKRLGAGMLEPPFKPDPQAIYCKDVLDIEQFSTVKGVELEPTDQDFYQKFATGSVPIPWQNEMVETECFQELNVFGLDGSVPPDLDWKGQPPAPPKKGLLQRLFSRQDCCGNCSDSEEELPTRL

On to `COc1cc(F)ccc1-c1cc(Nc2cc(CS(C)(=N)=O)ccn2)ncc1F` (stereo not drawn) [BAY-1251152], for which the remaining activity at 10 µM in [1] (setting [22]) came to 100%; in experiment [2] (setting [22]), 118%; in [3] (setting [22]) it was 110%; in experiment [4] (setting [22]), 106%; in experiment [5] (setting [22]) it was 107%; in experiment [6] (setting [22]), 114%. Also, the remaining activity at 10 µM is 69.2% in experiment [7] (setting [22]); 53.8% in experiment [8] (setting [22]); 113% in experiment [9] (setting [22]); 111% in experiment [10] (setting [22]); 98.2% in experiment [11] (setting [22]); 96.3% in experiment [12] (setting [22]). Moreover, the remaining activity at 10 µM was found to be 114% in [13] (setting [22]); 119% in [14] (setting [22]); 110% in experiment [15] (setting [22]); 84.7% in experiment [16] (setting [22]); 94.8% in experiment [17] (setting [22]); 114% in experiment [18] (setting [22]). In addition, the remaining activity at 10 µM was 104% in experiment [19] (setting [22]), 105% in experiment [20] (setting [22]) and 84.7% in experiment [21] (setting [22]).

`COc1cc(F)ccc1-c1ncnc(Nc2cccc(C[S@](C)(=N)=O)c2)n1` [BAY-1143572]: the remaining activity at 10 µM in experiment [1] (setting [23]) is 96.8%; in experiment [2] (setting [23]), 133%; in experiment [3] (setting [23]), 114%; in experiment [4] (setting [23]), 109%; in [5] (setting [23]), 102%; in experiment [6] (setting [23]), 120%. Besides, the remaining activity at 10 µM in [7] (setting [23]) amounted to 59.1%; in [8] (setting [23]), 97.7%; in experiment [9] (setting [23]), 106%; in [10] (setting [23]), 137%; in experiment [11] (setting [23]) it was 105%; in [12] (setting [23]), 99.6%. Moreover, the remaining activity at 10 µM worked out at 121% in [13] (setting [23]); 136% in experiment [14] (setting [23]); 113% in experiment [15] (setting [23]); 80.9% in [16] (setting [23]); 79.4% in experiment [17] (setting [23]); 118% in experiment [18] (setting [23]). Further, the remaining activity at 10 µM in experiment [19] (setting [23]) was 87.2%; in experiment [20] (setting [23]), 112%; in experiment [21] (setting [23]) it was 88.5%.
